Earlier results as cited in patent US5591891A, “N-[Mercaptoacyl (amino acid or peptide ) ] compounds and S-lipophiIic aliphatic carbonyl derivatives thereof as antihypertensives” (Institut National de la Sante et de la Recherche Medicale …, priority 1994, dated 1997).

Molecular target: T1, NEP (Rattus norvegicus, UniProt P07861)
T1 construct: thereby aids in reducing blood pressure in the rat; host or cells: rat, in vivo
T1 sequence (P07861 1-750): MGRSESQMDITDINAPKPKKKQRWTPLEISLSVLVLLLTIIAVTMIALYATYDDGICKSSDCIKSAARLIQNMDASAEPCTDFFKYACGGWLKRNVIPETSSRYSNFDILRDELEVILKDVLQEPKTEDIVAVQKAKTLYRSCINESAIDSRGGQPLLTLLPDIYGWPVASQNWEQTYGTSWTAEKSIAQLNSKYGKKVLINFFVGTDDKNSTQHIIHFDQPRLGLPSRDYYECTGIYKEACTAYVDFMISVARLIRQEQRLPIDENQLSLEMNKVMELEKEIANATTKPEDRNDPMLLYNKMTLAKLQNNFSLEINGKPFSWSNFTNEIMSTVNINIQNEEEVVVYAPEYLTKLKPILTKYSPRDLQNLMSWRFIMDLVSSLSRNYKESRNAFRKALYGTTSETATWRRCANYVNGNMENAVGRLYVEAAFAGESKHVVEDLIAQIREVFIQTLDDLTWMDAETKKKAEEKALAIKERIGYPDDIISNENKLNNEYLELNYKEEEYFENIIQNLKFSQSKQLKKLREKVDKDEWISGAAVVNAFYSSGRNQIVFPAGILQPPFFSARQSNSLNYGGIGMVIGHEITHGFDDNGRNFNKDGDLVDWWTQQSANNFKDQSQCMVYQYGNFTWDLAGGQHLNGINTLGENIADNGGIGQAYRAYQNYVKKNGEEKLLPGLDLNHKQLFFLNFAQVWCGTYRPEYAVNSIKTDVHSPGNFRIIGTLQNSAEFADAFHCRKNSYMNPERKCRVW
Conditions: aids in reducing blood pressure; cited from earlier work

In the case of `O=C(O)CNC(=O)C(CS)Cc1ccccc1` (racemic) [Thiorphan, N-(2-mercapto-methyl-3-phenyl-1-oxopropyl)glycine], the “half-life of circulating auricular natriuretic peptide” value is listed as “capable of augmenting the half-life of circulating auricular natriuretic peptide”.
